Molecular target: T1, DDX18 (Homo sapiens, UniProt Q9NVP1)
T1 construct: endogenous in cells; host or cells: HL-60 (ATCC CCL-240)
T1 sequence (Q9NVP1 1-670): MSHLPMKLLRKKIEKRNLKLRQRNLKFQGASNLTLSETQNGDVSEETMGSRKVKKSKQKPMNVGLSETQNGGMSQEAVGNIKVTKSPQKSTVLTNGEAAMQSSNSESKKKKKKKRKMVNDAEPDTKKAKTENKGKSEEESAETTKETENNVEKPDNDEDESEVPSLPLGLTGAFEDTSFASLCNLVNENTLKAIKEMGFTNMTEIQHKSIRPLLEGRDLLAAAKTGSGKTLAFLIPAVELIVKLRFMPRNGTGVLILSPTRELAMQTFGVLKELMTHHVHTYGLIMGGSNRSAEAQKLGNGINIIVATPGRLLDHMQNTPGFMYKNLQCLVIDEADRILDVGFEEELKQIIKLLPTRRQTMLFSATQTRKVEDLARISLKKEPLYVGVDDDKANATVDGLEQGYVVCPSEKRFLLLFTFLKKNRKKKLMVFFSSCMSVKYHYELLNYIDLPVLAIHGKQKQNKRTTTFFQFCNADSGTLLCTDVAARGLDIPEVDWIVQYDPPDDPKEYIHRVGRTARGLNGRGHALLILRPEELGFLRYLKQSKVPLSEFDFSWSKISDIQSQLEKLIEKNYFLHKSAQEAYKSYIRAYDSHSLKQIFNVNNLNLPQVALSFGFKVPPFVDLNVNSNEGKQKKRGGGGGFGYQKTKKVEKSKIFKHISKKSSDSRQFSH
Test: TPP-CCR in living HL-60 cells
Type: cell-based

Cc1cnc(Nc2ccc(F)cc2Cl)nc1-c1c[nH]c(C(=O)N[C@H](CO)c2cccc(Cl)c2)c1 [ERK 11e]
Hill slope (TPP-CCR, living cells, DDX18): 0.20 | Hill slope (DDX18) (living HL-60 cells, […] °C, TMT-MS): 0.20 | EC50 (living HL-60 cells, […] °C, TMT-MS, read-out: pEC50 (DDX18) (converted)): 0.2 µM

Source: PMC9147192, “Small Molecule Arranged Thermal Proximity Coaggregation (smarTPCA)—A Novel Approach to Characterize Protein–Protein Interactions in Living Cells by Similar Isothermal Dose–Responses” (International Journal of Molecular Sciences, 2022)
